Assay [1] deals with Vps34 (PIK3C3 lipid kinase) (Homo sapiens, UniProt Q8NEB9). Briefly: Biochemical Vps34 lipid kinase assay (ADP-Glo). The settings on record: for remaining activity at 1 µM: 1 h, read-out: VPS34_1microM_% of cntrl; for IC50: serial half-log dilution 10 μM to 0.3 nM, pIC50 = -log IC50 (M). In short, it runs like this: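 ADP-Glo luminescence assay of PIK3C3 (7.6 nM) with 50 µM substrate and 20 µM ATP (apparent Km) in HEPES pH 7.5, 100 mM NaCl, 3 mM MnCl2, CHAPS, DTT; 60 min, 30 °C. Single dose 1 µM (residual activity vs DMSO) or half-log series 10 µM-0.3 nM giving pIC50.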
Vps34 (PIK3C3 lipid kinase), sequence (Q8NEB9 whole entry, species assumed): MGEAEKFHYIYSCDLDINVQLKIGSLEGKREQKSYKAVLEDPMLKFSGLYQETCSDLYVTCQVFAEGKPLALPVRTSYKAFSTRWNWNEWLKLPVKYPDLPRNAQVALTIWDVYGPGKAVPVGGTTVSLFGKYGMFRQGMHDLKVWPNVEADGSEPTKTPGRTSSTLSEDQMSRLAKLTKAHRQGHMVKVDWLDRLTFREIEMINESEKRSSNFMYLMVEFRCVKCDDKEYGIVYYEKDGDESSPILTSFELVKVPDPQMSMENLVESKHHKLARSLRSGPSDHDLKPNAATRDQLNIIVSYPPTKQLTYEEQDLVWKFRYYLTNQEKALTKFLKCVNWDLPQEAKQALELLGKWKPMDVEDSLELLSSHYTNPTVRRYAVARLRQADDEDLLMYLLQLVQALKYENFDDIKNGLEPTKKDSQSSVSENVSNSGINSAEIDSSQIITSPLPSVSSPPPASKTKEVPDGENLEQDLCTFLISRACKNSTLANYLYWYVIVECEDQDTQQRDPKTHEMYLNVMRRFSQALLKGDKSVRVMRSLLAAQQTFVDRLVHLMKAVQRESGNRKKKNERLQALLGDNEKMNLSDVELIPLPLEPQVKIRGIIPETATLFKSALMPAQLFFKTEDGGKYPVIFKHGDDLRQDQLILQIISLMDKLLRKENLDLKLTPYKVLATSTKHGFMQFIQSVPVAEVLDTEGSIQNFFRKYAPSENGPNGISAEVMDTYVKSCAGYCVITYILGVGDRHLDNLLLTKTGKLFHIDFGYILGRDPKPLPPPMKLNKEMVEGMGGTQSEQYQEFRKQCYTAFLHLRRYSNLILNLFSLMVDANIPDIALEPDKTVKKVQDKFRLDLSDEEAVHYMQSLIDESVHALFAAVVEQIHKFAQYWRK
In general terms: ADP-Glo turns the ADP formed in a reaction into a luminescent signal.

Assay [2] has as its target T1, EF2K (Homo sapiens, UniProt O00418).
T1 construct: host or cells: LN-229 cell lysate
T1 sequence (O00418 1-725): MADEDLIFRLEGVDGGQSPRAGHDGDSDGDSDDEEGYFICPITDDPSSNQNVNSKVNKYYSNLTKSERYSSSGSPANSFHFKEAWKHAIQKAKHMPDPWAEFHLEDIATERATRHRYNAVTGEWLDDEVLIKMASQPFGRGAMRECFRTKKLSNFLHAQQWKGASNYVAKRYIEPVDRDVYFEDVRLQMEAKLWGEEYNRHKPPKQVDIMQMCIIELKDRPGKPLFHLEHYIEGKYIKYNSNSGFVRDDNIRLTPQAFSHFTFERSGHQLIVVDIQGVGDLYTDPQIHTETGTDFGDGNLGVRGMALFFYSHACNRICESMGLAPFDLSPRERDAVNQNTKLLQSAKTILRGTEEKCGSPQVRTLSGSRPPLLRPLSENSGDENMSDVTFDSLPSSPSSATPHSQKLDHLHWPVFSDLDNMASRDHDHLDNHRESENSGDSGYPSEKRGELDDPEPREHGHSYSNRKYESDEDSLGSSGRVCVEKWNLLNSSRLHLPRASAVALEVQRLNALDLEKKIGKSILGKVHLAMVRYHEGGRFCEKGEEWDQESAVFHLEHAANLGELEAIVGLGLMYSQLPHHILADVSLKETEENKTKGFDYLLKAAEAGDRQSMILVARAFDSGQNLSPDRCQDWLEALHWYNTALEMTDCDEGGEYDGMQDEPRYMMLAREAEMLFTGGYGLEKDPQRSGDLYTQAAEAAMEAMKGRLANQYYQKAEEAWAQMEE
In words: Biochemical EF2K lysate-based kinase assay (AlphaLISA p-eEF2 Thr56). The settings on record: pIC50 = -log IC50 (M), read-out: eEF2K_C_alphalisa pIC50 (converted). The procedure, abridged:
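LN-229 glioblastoma lysate supplied both EF2K and eEF2 substrate; compound incubated 15 min at room temperature in pH 6.6 buffer with 10 mM Mg2+ and 10 mM ATP. EDTA-stopped; phospho-eEF2 Thr56 quantified by AlphaLISA sandwich, final read after overnight. Values as pIC50.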

Assay [3] deals with T1, EF2K. Briefly: EF2K cell-based assay (P-EF2 AlphaLISA, 2-deoxyglucose stimulated MCF10A cells). The conditions noted are these: 2.5 mM 2-deoxyglucose stimulated, P-EF2 Thr56, pIC50 = -log IC50 (M), read-out: eEF2K_C_PThr56 pIC50 (converted). In short, it runs like this: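 MCF10A cells, after 24 h culture, treated 1 h with compound then stimulated 4 h with 2.5 mM 2-deoxyglucose to activate AMPK. Lysates in M-PER with protease/phosphatase inhibitors assayed for P-EF2 by AlphaLISA; pIC50 = −log IC50 (M).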
A general note: Alpha assays give light when donor and acceptor beads are brought close together.

Where [4] appears, read: single dose 1 μM compound, residual activity compared to control (DMSO).

`O=C1CC2CCN(CC2)Cc2cccc(c2)Nc2nccc(n2)-c2ccc(nc2)NCCCN1` [Compound 79]: in assay [1] (setting [4]), the remaining activity at 1 µM was determined as 24.3%. The IC50 in assay [1] was 6.03e-07 M; on EF2K [2], above 3.02e-05 M; at EF2K [3], above 3.02e-05 M.
Consider `O=C1CN2CCN(CC2)Cc2cccc(c2)Nc2nccc(n2)-c2ccc(nc2)N2CCCC2CN1` (stereo not drawn) [Compound 80], for which, in assay [1] (setting [4]), the VPS34_1microM_% of cntrl is on record as 63.22 % of cntrl. For the same compound, the IC50 at EF2K [2] was 1.74e-07 M; on EF2K [3], 5.5e-06 M.
For `CN1CCCN(C)c2ccc(cn2)-c2ccnc(n2)Nc2cccc(c2)CN2CCC(CC2)CC1=O` [Compound 81], in assay [1] (setting [4]), the remaining activity at 1 µM worked out at 26.4%. In addition, the IC50 is 8.91e-07 M in assay [1], 2.4e-06 M on EF2K [2] and 1.82e-05 M at EF2K [3].
Take `CN1CCCN(C)c2ccc(cn2)-c2ccnc(n2)Nc2cccc(c2)CN2CCN(CC1=O)C(=O)C2` [Compound 82]: the remaining activity at 1 µM in assay [1] (setting [4]) turned out to be 10.8%. In addition, the IC50 in assay [1] was 4.07e-07 M; on EF2K [2] it was 3.39e-07 M; at EF2K [3], above 3.02e-05 M.
Take `CN1CCCN(C)c2ccc(cn2)-c2ccnc(n2)Nc2cccc(c2)CN2CCN(CC2)C(=O)C1` [Compound 83]: in assay [1] (setting [4]), the remaining activity at 1 µM was found to be 3.25%. Moreover, the values for the IC50 (in assay [1]; on EF2K [2]; on EF2K [3]) were 6.92e-08 M, 1.78e-06 M and above 3.02e-05 M, respectively.
In the case of `CN1CCCN(C)c2ncc(cn2)-c2ccnc(n2)Nc2cccc(c2)CN2CCN(CC2)CC1=O` [Compound 84], the remaining activity at 1 µM in assay [1] (setting [4]) came out at 30.6%. In addition, the IC50 was 2.88e-07 M at EF2K [2] and 8.71e-06 M on EF2K [3].
The corresponding values for `O=C1CN2CCN(CC2)Cc2cccc(c2)Nc2nccc(n2)-c2ccc(nc2)NC(=O)CCN1` [Compound 85] are 47.6%, 2.69e-06 M and above 3.02e-05 M.
The corresponding values for `CN1CCCN(C)c2ccc(cc2)-c2ccnc(n2)Nc2cccc(c2)CN2CCN(CC1=O)C(C(=O)OCc1ccccc1)C2` (stereo not drawn) [Compound 92] are 38.3%, 8.91e-08 M and above 3.02e-05 M.
In the case of `COCC1CN2CCN1Cc1cccc(c1)Nc1nccc(n1)-c1ccc(nc1)N(C)CCCN(C)C(=O)C2` (stereo not drawn) [Compound 97], in assay [1] (setting [4]), the remaining activity at 1 µM was determined as 24.6%. The IC50 in assay [1] was 5.37e-07 M; at EF2K [2] it was 1.51e-07 M; at EF2K [3], 2.24e-05 M.
`CN1CCCN(C)c2ccc(cn2)-c2ccnc(n2)Nc2cccc(c2)CN2CCN(CC1=O)CC2COCCN1CCOCC1` (stereo not drawn) [Compound 98]: the remaining activity at 1 µM in assay [1] (setting [4]) was 33.9%. The IC50 on EF2K [2] was 1.48e-07 M; at EF2K [3], 2.75e-05 M.
On to `COCCOCC1CN2CCN1Cc1cccc(c1)Nc1nccc(n1)-c1ccc(nc1)N(C)CCCN(C)C(=O)C2` (stereo not drawn) [Compound 101], for which the remaining activity at 1 µM in assay [1] (setting [4]) was found to be 29.4%. Besides, the IC50 in assay [1] was 7.76e-07 M; on EF2K [2], 1.7e-07 M; at EF2K [3], 2.04e-05 M.
In the same order, the values of `CN1CCCN(C)c2ccc(cn2)-c2ccnc(n2)Nc2cccc(c2)CN2CCN(CC1=O)CC2COCCO` (stereo not drawn) [Compound 103] are 28.3%, 6.76e-07 M, 1.95e-07 M and 1.86e-05 M.
Take `CN1CCN(CCOCC2CN3CCN2Cc2cccc(c2)Nc2nccc(n2)-c2ccc(nc2)N(C)CCCN(C)C(=O)C3)CC1` (stereo not drawn) [Compound 106]: the remaining activity at 1 µM in assay [1] (setting [4]) came to 36.3%. In addition, the IC50 on EF2K [2] is 3.02e-07 M; on EF2K [3] it was 1.66e-05 M.
The corresponding values for `CN1CCCN(C)c2ccc(cn2)-c2ccnc(n2)Nc2cccc(c2)CN2CCN(CC1=O)CC2COCCN1CCNCC1` (stereo not drawn) [Compound 107] are 32.7%, 3.24e-07 M and above 3.02e-05 M.
In the case of `CN(C)CCOCC1CN2CCN1Cc1cccc(c1)Nc1nccc(n1)-c1ccc(nc1)N(C)CCCN(C)C(=O)C2` (stereo not drawn) [Compound 108], the remaining activity at 1 µM in assay [1] (setting [4]) turned out to be 25.5%. The IC50 in assay [1] is 5.25e-07 M; on EF2K [2] it was 2.09e-07 M; on EF2K [3], 2.45e-05 M.
In the same order, the values of `CN1CCCN(C)c2ccc(cn2)-c2ccnc(n2)Nc2cccc(c2)CC2CCN(CC2)CC1=O` [Compound 109] are 14.7%, 2.88e-07 M, 1.35e-06 M and above 3.02e-05 M.
The corresponding values for `CN1CCCN(C)c2ccc(cn2)-c2ccnc(n2)Nc2cccc(c2)N2CCN(CC2)CC1=O` [Compound 110] are 7.68%, 3.47e-07 M, 1.48e-06 M and above 3.02e-05 M.
In the same order, the values of `O=C1CNCCCNc2ccc(cn2)-c2ccnc(n2)Nc2cccc(c2)N2CCN1CC2` [Compound 111] are 1.43%, 1.7e-07 M, 4.47e-06 M and above 3.02e-05 M.
Regarding `O=C1CNCCCNc2ccc(cn2)-c2ccnc(n2)Nc2cccc(c2)CN2CCN1CC2` [Compound 112], the remaining activity at 1 µM in assay [1] (setting [4]) was determined as 6.25%. For the same compound, the values for the IC50 (in assay [1]; on EF2K [2]; on EF2K [3]) were 6.03e-08 M, 3.89e-06 M and 7.41e-06 M, respectively.
As for `O=C1CNCCNc2ccc(cn2)-c2ccnc(n2)Nc2cccc(c2)CN2CCN1CC2` [Compound 113], the remaining activity at 1 µM in assay [1] (setting [4]) was found to be 7.65%. The results for the IC50 (in assay [1]; on EF2K [2]; at EF2K [3]) were 1.66e-07 M, 2.82e-06 M and 4.47e-06 M, respectively.
On to `CN1CCCN(C)c2ccc(cn2)-c2ccnc(n2)Nc2cccc(c2)CC2(O)CCN(CC2)CC1=O` [Compound 114], for which, in assay [1] (setting [4]), the remaining activity at 1 µM came to 30.8%. For the same compound, the IC50 was 4.47e-06 M on EF2K [2] and 2.34e-05 M at EF2K [3].
On to `O=C1CN2CCC(CC2)Cc2cccc(c2)Nc2nccc(n2)-c2ccc(nc2)NCCCN1` [Compound 115], for which, in assay [1] (setting [4]), the remaining activity at 1 µM was determined as 6.01%. Besides, the IC50 in assay [1] is 1.51e-07 M; on EF2K [2], 2.14e-07 M; at EF2K [3], above 3.02e-05 M.
For the compound `O=C1CN2CCN(CC2)S(=O)(=O)c2cccc(c2)Nc2nccc(n2)-c2ccc(nc2)NCCCN1` [Compound 116], the remaining activity at 1 µM in assay [1] (setting [4]) was determined as 14%. The figures for the IC50 (in assay [1]; on EF2K [2]; on EF2K [3]) were 4.47e-07 M, 7.76e-06 M and above 3.02e-05 M, respectively.
The corresponding values for `O=C1CN2CCN(CC2)C(=O)c2cccc(c2)Nc2nccc(n2)-c2ccc(nc2)NCCCN1` [Compound 117] are 11.7%, 2e-07 M, 3.47e-07 M and above 3.02e-05 M.
`O=C1CN2CCN(CCc3cccc(c3)Nc3nccc(n3)-c3ccc(nc3)NCCCN1)CC2` [Compound 118]: the remaining activity at 1 µM in assay [1] (setting [4]) came out at 8.1%. The IC50 in assay [1] is 1.41e-07 M; on EF2K [2], 7.94e-06 M; at EF2K [3] it was above 3.02e-05 M.
Consider `O=C1CN2CCN(CC2)Cc2cccc(c2)Nc2nccc(n2)-c2ccc(nc2)NCCN1` [Compound 119], for which, in assay [1] (setting [4]), the remaining activity at 1 µM is 15.7%. For the same compound, the IC50 was 1.7e-07 M in assay [1], 7.94e-07 M at EF2K [2] and 5.01e-06 M at EF2K [3].
Regarding `O=C1CN2CCN(CC2)Cc2cc(ccc2Cl)Nc2nccc(n2)-c2ccc(nc2)NCCCN1` [Compound 120], in assay [1] (setting [4]), the remaining activity at 1 µM was determined as 7.29%. The IC50 in assay [1] is 1.2e-07 M; at EF2K [2], 1.74e-07 M; at EF2K [3] it was 1.45e-05 M.
Take `COCCN1CCNc2ccc(cn2)-c2ccnc(n2)Nc2cccc(c2)CN2CCN(CC2)CC1=O` [Compound 123]: the remaining activity at 1 µM in assay [1] (setting [4]) was 23.6%. For the same compound, the IC50 is 3.89e-06 M in assay [1], 8.71e-06 M on EF2K [2] and above 3.02e-05 M on EF2K [3].
Take `CN1CCCNc2ccc(cn2)-c2ccnc(n2)Nc2cccc(c2)CN2CCC(CC2)CC1=O` [Compound 124]: the remaining activity at 1 µM in assay [1] (setting [4]) was 53.2%. The IC50 on EF2K [2] and at EF2K [3] was above 3.02e-05 M each time.
As for `CN1CCCNC(=O)CC2CCN(CC2)Cc2cccc(c2)Nc2nccc(n2)-c2ccc1nc2` [Compound 125], the remaining activity at 1 µM in assay [1] (setting [4]) came to 28.4%. Moreover, the IC50 was 3.39e-07 M in assay [1], 1.58e-05 M at EF2K [2] and above 3.02e-05 M on EF2K [3].

(Values after patent US10017509B2, “Macrocylic pyrimidine derivatives” (Janssen Pharmaceutica NV, priority 2014, dated 2018).)
